According to US11591326B2, “Inhibitors of protein arginine methyltransferase 5 (PRMT5), pharmaceutical products thereof, and methods thereof” (PHARMABLOCK SCIENCES (NANJING), INC., priority 2018, dated 2023):
Read-outs that look alike come from different tables or passages of the source.

Key:
SNU475 = experiment: Liver cancer panel proliferation inhibition, SNU475; format: cell-based; details: Homo sapiens
Procedure: (§1) Inhibitory ability of compounds synthesized on the proliferation of three panels of cancer cell lines, including 5 breast cancer, 6 liver cancer, and 3 lung cancer cell lines were evaluated. Exponentially growing cells were seeded in the media of choice at various cell densities in 384-well plates with 20 ul per well and incubated overnight at 37° C., 5% CO2 incubator. Compounds were prepared as 10-point, 3-fold serial dilutions in DMSO, beginning at 6 mM. 1 μl of DMSO solutions from the compound stock plates were added to 99 ul of cell media (final top concentration of compound in the assay was 30 uM and the final concentration of DMSO was 0.5%). 20 μL of compound solutions in media were added to each well of plates with cells seeded. After adding compound solutions, assay plates were incubated for 8 and 12 days, respectively, at 37° C., 5% CO2. During this incubation period, cell media was changed every 4 days. After removing old media from cell plates, 40 ul of media with testing compounds dissolved, which were prepared by adding 1 ul of compound DMSO serial solutions to 199 ul of cell media, were added to the assay plates with the same layout as they were initially prepared. After 8 or 12 days, cell viability was measured using the CellTiter-Glo assay kit from Promega (Madison, Wis., USA) by quantitating the ATP present in the cell cultures. 20 μL of CellTiter-Glo reagent was added to each well of the cell plates. Luminescence was read after 10 minute of incubation with the Envision multiple plate reader from PerkinElmer (Waltham, Mass., USA). The concentrations of compounds inhibiting cell viability by 50% (IC50 values) were determined using a sigmoidal dose-response model (variable slopes, four parameters) in Prism 7 (La Jolla, Calif., USA).

Hep G2 = experiment: Liver cancer panel proliferation inhibition, Hep G2; format: cell-based; details: Homo sapiens
Procedure: as §1

[1] = test system: Pancreatic Carcinoma MIA PaCa-2 cell; experiment: Cell proliferation inhibition, MIA PaCa-2 (CellTiter-Glo); format: cell-based; details: Homo sapiens, MIA PaCa-2, incubated for 12 days (read after 8 or 12 days), read-out: IC50 (μM) MIA PaCa2
From the text: Materials and Cell Lines: Z-138, U251, and MIA PaCa2 cells were purchased from ATCC (American Type Culture Collection, Manassas, Va.) and Chinese Academy of Science (Shanghai, China). Iscove's Modified Dulbecco's Medium (IMDM), Dulbecco's Modified Eagle Medium (DMEM), penicillin-streptomycin, heat inactivated fetal bovine serum (FBS), and horse serum was purchased from ThermoFisher, Waltham, Mass., USA. Corning 96- and 384-well cell culture plates were purchased from ThermoFisher, Waltham, Mass., USA. Cell-Titer Glo® was purchased from Promega Corporation, Madison, Wis., USA.
In order to evaluate the inhibitory ability of compounds synthesized on the proliferation of the Pancreatic Carcinoma MIA PaCa-2 cell, exponentially growing cells were seeded in the culture media of DMEM with 10% FBS, 2.5% horse serum, 1 mM of Sodium Pyruvate and 1% penicillin-streptomycin at a concentration of 2500 cells/ml in a 384-well plate with 20 ul per well and incubated overnight at 37° C., 5% CO2 incubator. Compounds were prepared as 10-point, 3-fold serial dilutions in DMSO, beginning at 6 mM. 1 μl of DMSO solutions from the compound stock plates were added to 99 ul of cell media (final top concentration of compound in the assay was 30 uM and the final concentration of DMSO was 0.5%). 20 μL of compound solutions in media were added to each well of MIA PaCa-2 cell plates. After adding compound solutions, assay plates were incubated for 12 days at 37° C., 5% CO2. During this incubation period, cell media was changed every 4 days. After removing old media from cell plates, 40 ul of media with testing compounds dissolved, which were prepared by adding 1 ul of compound DMSO serial solutions to 199 ul of cell media, were added to the assay plates with the same layout as they were initially prepared. After 8 or 12 days, cell viability was measured using the CellTiter-Glo assay kit from Promega (Madison, Wis., USA) by quantitating the ATP present in the cell cultures. 20 μL of CellTiter-Glo reagent was added to each well of the cell plates. Luminescence was read after 10 minute of incubation with the Envision multiple plate reader from PerkinElmer (Waltham, Mass., USA). The concentrations of compounds inhibiting cell viability by 50% (IC50 values) were determined using a sigmoidal dose-response model (variable slopes, four parameters) in Prism 7 (La Jolla, Calif., USA).

[2] = molecular target: Human recombinant PRMT5 in complex with human recombinant MEP50 (Homo sapiens (Human), UniProt O14744); experiment: PRMT5/MEP50 AlphaLISA enzyme inhibitory assay; format: biochemical; details: PRMT5/MEP50 25 nM, SAM 10 μM, Biotin-H4 peptide 30 nM
Procedure, shortened: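 Insect-cell-expressed PRMT5/MEP50 (25 nM) preincubated with SAM (10 μM), then 15 min with compound in pH 8.5 Tris buffer, 1% DMSO. Biotin-H4(1–21) peptide (30 nM) reaction ran 120 min at room temperature. H4R3 methylation detected by AlphaLISA; IC50 from four-parameter sigmoidal fit.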

[3] = SNU-475, 192 h, SNU475, 8 days, read-out: IC50 (μM) 8 days
[4] = SNU-475, 288 h, SNU475, 12 days, read-out: IC50 (μM) 12 days
[5] = HepG2, 192 h, Hep G2, 8 days, read-out: IC50 (μM) 8 days
[6] = HepG2, 288 h, Hep G2, 12 days, read-out: IC50 (μM) 12 days

Chain of Human recombinant PRMT5 in complex with human recombinant MEP50 (O14744 whole entry): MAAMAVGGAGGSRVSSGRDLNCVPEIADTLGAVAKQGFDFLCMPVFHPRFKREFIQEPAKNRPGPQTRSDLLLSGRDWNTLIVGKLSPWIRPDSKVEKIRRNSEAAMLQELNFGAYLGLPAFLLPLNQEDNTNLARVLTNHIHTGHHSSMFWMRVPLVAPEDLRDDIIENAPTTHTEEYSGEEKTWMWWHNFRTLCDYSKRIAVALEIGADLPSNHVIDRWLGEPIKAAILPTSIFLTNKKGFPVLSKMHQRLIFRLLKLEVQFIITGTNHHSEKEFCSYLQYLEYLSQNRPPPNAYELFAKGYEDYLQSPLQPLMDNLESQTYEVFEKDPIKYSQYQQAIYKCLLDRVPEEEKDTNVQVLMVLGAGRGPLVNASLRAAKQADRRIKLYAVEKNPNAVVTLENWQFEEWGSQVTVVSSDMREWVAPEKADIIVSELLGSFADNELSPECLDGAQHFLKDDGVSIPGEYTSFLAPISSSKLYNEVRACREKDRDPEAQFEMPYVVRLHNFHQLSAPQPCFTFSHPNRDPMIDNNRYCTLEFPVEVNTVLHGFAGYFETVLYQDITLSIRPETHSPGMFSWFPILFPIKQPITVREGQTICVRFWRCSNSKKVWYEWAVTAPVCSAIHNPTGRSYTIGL
Chain of Human recombinant PRMT5 in complex with human recombinant MEP50 (Q9BQA1 whole entry partner): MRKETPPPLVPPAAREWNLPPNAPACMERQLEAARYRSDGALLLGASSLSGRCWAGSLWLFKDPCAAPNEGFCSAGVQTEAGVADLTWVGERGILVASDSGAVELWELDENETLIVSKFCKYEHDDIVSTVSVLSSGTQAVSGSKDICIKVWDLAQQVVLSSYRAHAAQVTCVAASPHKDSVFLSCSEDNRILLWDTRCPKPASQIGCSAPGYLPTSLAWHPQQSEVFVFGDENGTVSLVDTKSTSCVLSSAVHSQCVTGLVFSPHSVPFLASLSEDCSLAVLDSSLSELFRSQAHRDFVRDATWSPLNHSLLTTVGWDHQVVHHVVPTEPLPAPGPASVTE

IC50 (SNU475; [3])	IC50 (SNU475; [4])	IC50 (Hep G2; [5])	IC50 (Hep G2; [6])	IC50 [1]	IC50 [2]	SMILES
0.29 µM	0.35 µM	3.09 µM	0.97 µM	0.114 µM	80 nM	CC(=O)N1CCC(Nc2ccc3c(c2)C(=O)N(C[C@H](O)CN2CCc4ccccc4C2)CCO3)CC1 [Compound 52a, (R)-7-((1-acetylpiperidin-4-yl)amino)-4-(3-(3,4-dihydroisoquinolin-2(1H)-yl)-2-hydroxypropyl)-3,4-dihydrobenzo[f][1,4]oxazepin-5(2H)-one]
0.21 µM	0.32 µM	2.87 µM	0.77 µM	0.13 µM	13 nM	CC(=O)N1CCC(Nc2ccc3c(c2)C(=O)N(C[C@H](O)CN2CCc4ccccc4C2)CC3)CC1 [Compound 24a, (R)-7-((1-acetylpiperidin-4-yl)amino)-2-(3-(3,4-dihydroisoquinolin-2(1H)-yl)-2-hydroxypropyl)-3,4-dihydroisoquinolin-1(2H)-one]
0.66 µM	0.86 µM	> 10 µM	3.26 µM	0.15 µM	–	CC(=O)N1CCC(Nc2cc(C(=O)NC[C@H](O)CN3CCc4ccccc4C3)ncn2)CC1 [Compound C3, reference compound]
